Data: US20210230131A1, “POLYAMINO BIARYL COMPOUNDS AND THEIR USE” (INSERM (INSTITUT NATIONAL DE LA SANTÉ ET DE LA RECHERCHE …, priority 2018, published 2021)

Columns and labels:
Aβ1-40 peptide secretion = assay: Quantification of secreted Aβ1-40 by ELISA in SY5Y-APP695WT cells; assay type: cell-based; settings: Homo sapiens; concentration inhibiting 50% of Aβ1-40 peptide secretion in SY5Y cells; 24 h treatment; mean ± SD of at least two experiments in triplicate
Protocol: (§1) Cell culture and treatment. The human neuroblastoma cell line […] was maintained in Dulbecco's modified Eagle medium (DMEM, high glucose, pyruvate-GIBCO by Life Technologies) supplemented with 10% foetal bovine serum, 2 mM L-glutamine, 1 mM non-essential amino acids and penicillin/streptomycin (GIBCO by Life Technologies) at 37° C. in a 5% CO2 humidified incubator. […] cells were maintained in 75 cm^2 culture flasks (Falcon) with supplemented DMEM medium until they reached 80% of confluence 24 h before treatment. For compounds treatment, a 10 mM stock solution was diluted in freshly supplemented DMEM medium to obtain the precise final concentration of drug. Bafilomycin A1 (BafA1), the vacuolar […] type H+ ATPase inhibitor, was purchased from Merck Millipore and was used at a final dilution of 100 nM. For drug treatment, cells were plated at a rate of 5·10^5 cells per well into 12-well plates (Falcon) and cultured with 1 mL supplemented DMEM cell medium for 24 h before drug exposure. The following day, cell medium was replaced with fresh medium containing drugs diluted at the indicated concentrations. Cells were treated for 24 h. At the end of treatments, the cell medium was collected and kept at -80° C. until use for dosage. Then, cells were rinsed once with PBS and extracted in 100 μL of Laemmli buffer (10 mM Tris, 20% glycerol and 2% Sodium dodecyl sulfate) using a cell-scraper. The cell lysate was further sonicated (30 pulses of 0.5 s, 60 Hz) for 5 min. Total protein concentration was determined using the Pierce BCA Protein Assay Kit (Thermo scientific) according to the manufacturer's instructions. Samples were stored at -80° C. until analysis. Quantification of secreted Aβ1-40/1-42 and sAPPα/sAPPβ. Conditioned media of […] collected at the end of treatments were centrifuged at 1000 g for 5 min to eliminate cells debris. Aβ1-40 and Aβ1-42 peptide concentrations in […] were determined using amyloid-beta 40 and 42 Human ELISA kits (Invitrogen) according to the manufacturer's instructions after 1:10 and 1:2 dilutions of supernatants in ELISA buffer, respectively. sAPPα and sAPPβ concentrations in ng/mL were determined using the sAPPα/sAPPβ kit (Meso Scale Diagnostics, MSD®) according to the manufacturer's instructions. Compounds of the invention (compounds 24-37, 41, 44 and 51-58) were evaluated for their ability to modulate APP processing on SY5Y human neuroblastoma cell line stably expressing the neuronal isoform of human wild-type APP695 (SYSY-APPwt). Aβ levels (Aβ1-40 and Aβ1-42) after treatment with reference and tested compounds were measured by ELISA (Table 2). […] APP carboxy-terminal fragments (αCTFs and AICD) were measured by Western blot and quantified. The effect of reference and tested compounds on αCTFs and AICD are expressed as the intensity of corresponding western-blot bands resulting from the secretase cleavages.

Aβ1-42 peptide secretion = assay: Quantification of secreted Aβ1-42 by ELISA in SY5Y-APP695WT cells; assay type: cell-based; settings: Homo sapiens; concentration inhibiting 50% of Aβ1-42 peptide secretion in SY5Y cells; 24 h treatment; mean ± SD of at least two experiments in triplicate
Protocol: as §1

SMILES	IC50 (Aβ1-40 peptide secretion)	IC50 (Aβ1-42 peptide secretion)
CN(C)Cc1ccccc1-c1ccc(NCCCN2CCCCC2)c(OCCN2CCCCC2)c1 [Compound 30, 4-(2-[(Dimethylamino)methyl]phenyl)-2-[2-(piperidin-1-yl)ethoxy]-N-[3-(piperidin-1-yl)propyl]aniline]	2.8 ± 1.2 µM	3.4 ± 1.9 µM
CN(C)Cc1ccccc1-c1ccc(NCCCN2CCCCC2)c(OCCC2CCCCC2)c1 [Compound 31, 3-(2-cyclohexylethoxy)-2′-((dimethylamino)methyl)-N-(3-(piperidin-1-yl)propyl)-[1,1′-biphenyl]-4-amine]	2.1 ± 0.3 µM	2.8 ± 0.1 µM
